Reference: PubChem BioAssay AID270 (DTP/NCI, 2004)
“And” between values parts separate entries of the source, which are not always exact repeats. Equal entries are not always repeated. Records with an inconclusive call do not appear.

Tested on: BDF1 mice, s.c. Lewis lung carcinoma, T/C %
Test: NCI In Vivo Anticancer Drug Screen. Data for tumor model Lewis Lung Carcinoma (subcutaneous) in B6D2F1 (BDF1) mice
Summary of the method: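 Antitumor effect in vivo is scored from survival or tumor burden, reported as treated relative to vehicle controls.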

[1] = endpoint: mean tumor weight, dose: 5.0 mg/kg/injection, schedule: Q01DX011 (ip), vehicle: saline, higher = larger tumour
[2] = endpoint: mean tumor weight, dose: 10.0 mg/kg/injection, schedule: Q01DX011 (ip), vehicle: saline, higher = larger tumour
[3] = endpoint: mean tumor weight, dose: 20.0 mg/kg/injection, schedule: Q01DX011 (ip), vehicle: saline, higher = larger tumour
[4] = endpoint: mean tumor weight, dose: 40.0 mg/kg/injection, schedule: Q01DX011 (ip), vehicle: saline, higher = larger tumour
[5] = endpoint: mean tumor weight, dose: 25.0 mg/kg/injection, schedule: Q01DX011 (ip), vehicle: saline, higher = larger tumour

CN(CCCOS(C)(=O)=O)CCCOS(C)(=O)=O
T/C [1]: 85 % of control
T/C [2]: 78 % of control
T/C [3]: 49 % of control
T/C [4]: 59 % of control

COC(C(=O)C(O)C(C)O)C1Cc2cc3cc(OC4CC(OC(C)=O)C(OC5CC(O)C(OC)C(C)O5)C(C)O4)cc(O)c3c(O)c2C(=O)C1OC1CC(OC2CC(OC3CC(C)(O)C(OC(=O)C(C)C)C(C)O3)C(O)C(C)O2)C(O)C(C)O1 (configuration not stated)
T/C (endpoint: median survival time, dose: 0.5 mg/kg/injection, schedule: Q01DX009 (ip), vehicle: saline with Tween-80, higher = longer survival): 97 % of control
T/C (endpoint: median survival time, dose: 2.0 mg/kg/injection, schedule: Q01DX009 (ip), vehicle: saline with Tween-80, higher = longer survival): 94 % of control

CCOC(=O)CC(NC(=O)CP(=O)(OCC)OCC)C(=O)OCC (configuration not stated)
T/C (endpoint: median survival time, dose: 50.0 mg/kg/injection, schedule: Q01DX004 (ip), vehicle: saline, higher = longer survival): 113 % of control
T/C (endpoint: median survival time, dose: 100.0 mg/kg/injection, schedule: Q01DX004 (ip), vehicle: saline, higher = longer survival): 116 % of control
T/C (endpoint: median survival time, dose: 200.0 mg/kg/injection, schedule: Q01DX004 (ip), vehicle: saline, higher = longer survival): 124 % of control
T/C (endpoint: median survival time, dose: 400.0 mg/kg/injection, schedule: Q01DX004 (ip), vehicle: saline, higher = longer survival): 116 % of control
T/C (endpoint: median survival time, dose: 800.0 mg/kg/injection, schedule: Q01DX004 (ip), vehicle: saline, higher = longer survival): 116 % of control
T/C (endpoint: median survival time, dose: 1600.0 mg/kg/injection, schedule: Q01DX004 (ip), vehicle: saline, higher = longer survival): 120 % of control

O=NN(CCCl)C(=O)Nc1cc2c3ccccc3ccc2c2ccccc12
T/C (endpoint: median survival time, dose: 3.12 mg/kg/injection, schedule: Q01DX009 (ip), vehicle: Klucel (hydroxypropylcellulose) (HPC), higher = longer survival): 95 % of control
T/C (endpoint: median survival time, dose: 6.25 mg/kg/injection, schedule: Q01DX009 (ip), vehicle: Klucel (hydroxypropylcellulose) (HPC), higher = longer survival): 100 % of control
T/C (endpoint: median survival time, dose: 12.5 mg/kg/injection, schedule: Q01DX009 (ip), vehicle: Klucel (hydroxypropylcellulose) (HPC), higher = longer survival): 96 % of control

O=[N+]([O-])O.[Ga]
T/C (endpoint: median survival time, dose: 8.0 mg/kg/injection, schedule: Q01DX009 (ip), vehicle: saline, higher = longer survival): 118 % of control
T/C (endpoint: median survival time, dose: 16.0 mg/kg/injection, schedule: Q01DX009 (ip), vehicle: saline, higher = longer survival): 158 % of control
T/C (endpoint: median survival time, dose: 32.0 mg/kg/injection, schedule: Q01DX009 (ip), vehicle: saline, higher = longer survival): 99 % of control

C1CCNCC1
T/C (endpoint: mean tumor weight, dose: 6.25 mg/kg/injection, schedule: Q01DX011 (ip), vehicle: saline, higher = larger tumour): 87 % of control
T/C (endpoint: mean tumor weight, dose: 12.5 mg/kg/injection, schedule: Q01DX011 (ip), vehicle: saline, higher = larger tumour): 87 % of control
T/C [5]: 94 % of control
T/C (endpoint: mean tumor weight, dose: 50.0 mg/kg/injection, schedule: Q01DX011 (ip), vehicle: saline, higher = larger tumour): 73 % of control and 95 % of control
T/C (endpoint: mean tumor weight, dose: 100.0 mg/kg/injection, schedule: Q01DX011 (ip), vehicle: saline, higher = larger tumour): 83 % of control

CN(C)CCCN1c2ccccc2Sc2ccc(C(F)(F)F)cc21
T/C (endpoint: mean tumor weight, dose: 12.0 mg/kg/injection, schedule: Q01DX011 (ip), vehicle: saline, higher = larger tumour): 81 % of control
T/C [5]: 44 % of control

Nc1nc(SN=Nc2ccc(S(N)(=O)=O)cc2)c2[nH]cnc2n1
T/C (endpoint: mean tumor weight, dose: 0.6 mg/kg/injection, schedule: Q01DX011 (ip), vehicle: saline, higher = larger tumour): 64 % of control
T/C (endpoint: mean tumor weight, dose: 1.0 mg/kg/injection, schedule: Q01DX011 (ip), vehicle: saline, higher = larger tumour): 43 % of control
T/C (endpoint: mean tumor weight, dose: 1.5 mg/kg/injection, schedule: Q01DX011 (ip), vehicle: saline, higher = larger tumour): 93 % of control
T/C (endpoint: mean tumor weight, dose: 2.2 mg/kg/injection, schedule: Q01DX011 (ip), vehicle: other, higher = larger tumour): 67 % of control
T/C (endpoint: mean tumor weight, dose: 2.2 mg/kg/injection, schedule: Q01DX011 (ip), vehicle: saline, higher = larger tumour): 52 % of control and 67 % of control
T/C (endpoint: mean tumor weight, dose: 3.3 mg/kg/injection, schedule: Q01DX011 (ip), vehicle: other, higher = larger tumour): 72 % of control
T/C (endpoint: mean tumor weight, dose: 3.3 mg/kg/injection, schedule: Q01DX011 (ip), vehicle: saline, higher = larger tumour): 36 % of control
T/C (endpoint: mean tumor weight, dose: 5.0 mg/kg/injection, schedule: Q01DX011 (ip), vehicle: other, higher = larger tumour): 35 % of control
T/C [1]: 40 % of control
T/C (endpoint: mean tumor weight, dose: 7.5 mg/kg/injection, schedule: Q01DX011 (ip), vehicle: other, higher = larger tumour): 11 % of control
T/C (endpoint: mean tumor weight, dose: 7.5 mg/kg/injection, schedule: Q01DX011 (ip), vehicle: saline, higher = larger tumour): 19 % of control

O=C1NC2C(NC(=O)N2Cl)N1Cl (configuration not stated)
T/C [3]: 97 % of control
T/C [4]: 114 % of control

C#C[C@]1(O)CC[C@H]2[C@@H]3CCc4cc(O)ccc4[C@H]3CC[C@@]21C
T/C (endpoint: median survival time, dose: 1.25 mg/kg/injection, schedule: Q02DX009 (ip), vehicle: Klucel (hydroxypropylcellulose) (HPC), higher = longer survival): 88 % of control
T/C (endpoint: median survival time, dose: 2.5 mg/kg/injection, schedule: Q02DX009 (ip), vehicle: Klucel (hydroxypropylcellulose) (HPC), higher = longer survival): 92 % of control
T/C (endpoint: median survival time, dose: 5.0 mg/kg/injection, schedule: Q02DX009 (ip), vehicle: Klucel (hydroxypropylcellulose) (HPC), higher = longer survival): 96 % of control
T/C (endpoint: median survival time, dose: 10.0 mg/kg/injection, schedule: Q02DX009 (ip), vehicle: Klucel (hydroxypropylcellulose) (HPC), higher = longer survival): 91 % of control and 101 % of control
T/C (endpoint: median survival time, dose: 20.0 mg/kg/injection, schedule: Q02DX009 (ip), vehicle: Klucel (hydroxypropylcellulose) (HPC), higher = longer survival): 104 % of control
T/C (endpoint: median survival time, dose: 40.0 mg/kg/injection, schedule: Q02DX009 (ip), vehicle: Klucel (hydroxypropylcellulose) (HPC), higher = longer survival): 108 % of control and 120 % of control

CN(N=O)C(N)=O
T/C (endpoint: mean tumor weight, dose: 2.5 mg/kg/injection, schedule: Q01DX011 (ip), vehicle: saline, higher = larger tumour): 78 % of control
T/C [1]: 77 % of control
T/C [2]: 57 % of control
T/C [3]: 20 % of control

COc1cc2c(cc1OC)-c1ccc3cc4c(cc3c1N(C)C2)OCO4
T/C (endpoint: median survival time, dose: 5.0 mg/kg/injection, schedule: Q01DX009 (ip), vehicle: water, higher = longer survival): 89 % of control
T/C (endpoint: median survival time, dose: 20.0 mg/kg/injection, schedule: Q01DX009 (ip), vehicle: water, higher = longer survival): 105 % of control
T/C (endpoint: median survival time, dose: 40.0 mg/kg/injection, schedule: Q01DX009 (ip), vehicle: water, higher = longer survival): 89 % of control
T/C (endpoint: median survival time, dose: 80.0 mg/kg/injection, schedule: Q01DX009 (ip), vehicle: water, higher = longer survival): 98 % of control

NC(=S)N/N=C/c1nccc2ccccc12
T/C (endpoint: mean tumor weight, dose: 12.5 mg/kg/injection, schedule: Q01DX011 (ip), vehicle: carboxymethylcellulose (CMC), higher = larger tumour): 103 % of control
T/C (endpoint: mean tumor weight, dose: 25.0 mg/kg/injection, schedule: Q01DX011 (ip), vehicle: carboxymethylcellulose (CMC), higher = larger tumour): 48 % of control
T/C (endpoint: mean tumor weight, dose: 26.0 mg/kg/injection, schedule: Q01DX011 (ip), vehicle: saline, higher = larger tumour): 64 % of control
T/C (endpoint: mean tumor weight, dose: 33.5 mg/kg/injection, schedule: Q01DX011 (ip), vehicle: carboxymethylcellulose (CMC), higher = larger tumour): 56 % of control
T/C (endpoint: mean tumor weight, dose: 38.0 mg/kg/injection, schedule: Q01DX011 (ip), vehicle: saline, higher = larger tumour): 16 % of control
T/C (endpoint: mean tumor weight, dose: 40.0 mg/kg/injection, schedule: Q01DX011 (oral), vehicle: saline, higher = larger tumour): 42 % of control
T/C (endpoint: mean tumor weight, dose: 56.0 mg/kg/injection, schedule: Q01DX011 (ip), vehicle: saline, higher = larger tumour): 3 % of control
T/C (endpoint: median survival time, dose: 9.4 mg/kg/injection, schedule: Q01DX009 (ip), vehicle: saline with Tween-80, higher = longer survival): 124 % of control
T/C (endpoint: median survival time, dose: 18.8 mg/kg/injection, schedule: Q01DX009 (ip), vehicle: saline with Tween-80, higher = longer survival): 98 % of control and 108 % of control
T/C (endpoint: median survival time, dose: 37.5 mg/kg/injection, schedule: Q01DX009 (ip), vehicle: saline with Tween-80, higher = longer survival): 98 % of control
